Measured values published in the supplement of paper PMC10307832.

Columns and labels:
Experiment in all cases: relative viability (nuclei count vs DMSO), 5 days (fraction); higher = more cells survive
AGI-6780 + Vorinostat = compound: O=C(Nc1cccc(C(F)(F)F)c1)Nc1cc(S(=O)(=O)NC2CC2)ccc1-c1ccsc1 [AGI-6780] + O=C(CCCCCCC(=O)Nc1ccccc1)NO [Vorinostat] (partner 1 µM)
Method in brief: (§1)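 A single step with final 0.05% Triton X-100, 1% formaldehyde and 1 ug/ml Hoechst fixed the cells and stained nuclei 5 days after treatment. Lung cancer cell lines in 1536-well plates had been treated by pin tool the day after seeding with one drug alone or a fixed anchor-drug dose plus five library-drug doses (not always all listed) in √10 steps, and nuclei were counted on 4× images. Relative viability is the ratio of nuclei in treated wells to nuclei in vehicle wells, taken as the median of duplicate plates.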

AGI-6780 + Pemetrexed = compound: O=C(Nc1cccc(C(F)(F)F)c1)Nc1cc(S(=O)(=O)NC2CC2)ccc1-c1ccsc1 [AGI-6780] + Nc1nc2[nH]cc(CCc3ccc(C(=O)N[C@@H](CCC(=O)O)C(=O)O)cc3)c2c(=O)[nH]1 [Pemetrexed] (partner 0.2 µM)
Method in brief: as §1

AGI-6780 + Dasatinib = compound: O=C(Nc1cccc(C(F)(F)F)c1)Nc1cc(S(=O)(=O)NC2CC2)ccc1-c1ccsc1 [AGI-6780] + Cc1nc(Nc2ncc(C(=O)Nc3c(C)cccc3Cl)s2)cc(N2CCN(CCO)CC2)n1 [Dasatinib] (partner 0.075 µM)
Method in brief: as §1

AGI-6780 + Palbociclib = compound: O=C(Nc1cccc(C(F)(F)F)c1)Nc1cc(S(=O)(=O)NC2CC2)ccc1-c1ccsc1 [AGI-6780] + CC(=O)c1c(C)c2cnc(Nc3ccc(N4CCNCC4)cn3)nc2n(C2CCCC2)c1=O [Palbociclib] (partner 0.5 µM)
Method in brief: as §1

Row | Cell Line | relative viability (AGI-6780 + Vorinostat; first compound 0.08 µM) | relative viability (AGI-6780 + Vorinostat; first compound 0.253 µM) | relative viability (AGI-6780 + Vorinostat; first compound 0.8 µM) | relative viability (AGI-6780 + Vorinostat; first compound 2.53 µM) | relative viability (AGI-6780 + Vorinostat; first compound 8 µM) | relative viability (AGI-6780 + Pemetrexed; first compound 0.08 µM) | relative viability (AGI-6780 + Pemetrexed; first compound 0.253 µM) | relative viability (AGI-6780 + Pemetrexed; first compound 0.8 µM) | relative viability (AGI-6780 + Pemetrexed; first compound 2.53 µM) | relative viability (AGI-6780 + Pemetrexed; first compound 8 µM) | relative viability (AGI-6780 + Dasatinib; first compound 0.08 µM) | relative viability (AGI-6780 + Dasatinib; first compound 0.253 µM) | relative viability (AGI-6780 + Dasatinib; first compound 0.8 µM) | relative viability (AGI-6780 + Dasatinib; first compound 2.53 µM) | relative viability (AGI-6780 + Dasatinib; first compound 8 µM) | relative viability (AGI-6780 + Palbociclib; first compound 0.08 µM) | relative viability (AGI-6780 + Palbociclib; first compound 0.253 µM) | relative viability (AGI-6780 + Palbociclib; first compound 0.8 µM) | relative viability (AGI-6780 + Palbociclib; first compound 2.53 µM) | relative viability (AGI-6780 + Palbociclib; first compound 8 µM)
1 | NCI-H460 | 0.787 | 0.678 | 0.779 | 0.658 | 0.659 | 0.0559 | 0.0709 | 0.0574 | 0.0584 | 0.0641 | 0.495 | 0.583 | 0.468 | 0.444 | 0.541 | 0.145 | 0.211 | 0.144 | 0.136 | 0.15
2 | NCI-H520 | 0.694 | 0.71 | 0.91 | 0.64 | 0.764 | 0.803 | 0.625 | 0.669 | 0.586 | 0.637 | 0.197 | 0.185 | 0.216 | 0.177 | 0.194 | 0.208 | 0.25 | 0.232 | 0.235 | 0.207
3 | NCI-H522 | 0.922 | 0.946 | 1.05 |  | 0.825 | 1.23 | 1.04 | 0.913 |  | 1.05 | 0.941 | 0.85 | 1.01 | 0.812 | 0.836 | 0.97 | 0.972 | 0.968 |  | 0.86
4 | NCI-H647 | 0.734 | 0.628 | 0.942 | 0.572 | 0.752 | 0.173 | 0.192 | 0.119 | 0.2 | 0.178 | 0.186 | 0.202 | 0.23 | 0.175 | 0.448 | 0.416 | 0.36 | 0.48 | 0.332 | 0.422
5 | NCI-H650 | 0.465 | 0.466 | 0.393 | 0.389 | 0.465 | 0.935 | 0.943 | 0.993 | 0.893 | 0.945 | 0.459 | 0.528 | 0.443 | 0.399 | 0.426 | 0.34 | 0.3 | 0.258 | 0.333 | 0.334
6 | NCI-H661 | 0.815 | 0.863 | 0.809 | 0.793 | 0.734 | 0.909 | 0.956 | 0.967 | 0.969 | 0.905 | 0.819 | 0.998 | 0.986 | 0.858 | 1.02 | 0.418 | 0.41 | 0.411 | 0.371 | 0.432
7 | NCI-H838 | 0.801 | 0.687 | 0.738 | 0.647 | 0.672 | 0.258 | 0.251 | 0.249 | 0.23 | 0.225 | 0.312 | 0.357 | 0.307 | 0.261 | 0.321 | 0.252 | 0.267 | 0.221 | 0.218 | 0.224
8 | NCI-H1355 | 0.696 | 0.724 | 0.671 | 0.569 | 0.687 | 1.07 | 1.17 | 1.02 | 0.937 | 1 | 0.771 | 0.712 | 0.771 | 0.518 | 0.776 | 0.432 | 0.409 | 0.408 | 0.354 | 0.342
9 | NCI-H1395 | 0.714 | 0.726 | 0.826 | 0.618 | 0.701 | 0.779 | 0.975 | 0.945 | 0.729 | 0.843 | 0.403 | 0.478 | 0.428 | 0.36 | 0.376 | 0.629 | 0.603 | 0.616 | 0.572 | 0.656
10 | NCI-H1437 | 0.818 | 0.856 | 0.827 | 0.751 | 0.636 | 0.338 | 0.309 | 0.356 | 0.346 | 0.314 | 0.371 | 0.493 | 0.404 | 0.306 | 0.342 | 0.296 | 0.365 | 0.25 | 0.347 | 0.322
11 | NCI-H1650 | 0.583 | 0.592 | 0.646 | 0.489 | 0.549 | 0.4 | 0.367 | 0.366 | 0.418 | 0.358 | 0.337 | 0.371 | 0.38 | 0.274 | 0.366 | 0.297 | 0.456 | 0.447 | 0.442 | 0.432
12 | NCI-H1651 | 0.481 | 0.568 | 0.509 | 0.545 | 0.661 | 0.542 | 0.643 | 0.633 | 0.556 | 0.623 | 0.361 | 0.534 | 0.528 | 0.341 | 0.544 | 0.522 | 0.538 | 0.534 | 0.466 | 0.547
13 | NCI-H1666 | 1.01 | 0.996 | 1.04 | 0.902 | 1.06 | 0.9 | 1.02 | 0.847 | 1.02 | 0.863 | 0.785 | 0.79 | 0.872 | 0.708 | 0.877 | 0.605 | 0.679 | 0.616 | 0.601 | 0.601
14 | NCI-H1734 | 0.798 | 0.842 | 0.865 | 0.728 | 0.799 | 0.479 | 0.438 | 0.429 | 0.426 | 0.42 | 0.459 | 0.461 | 0.473 | 0.347 | 0.435 | 0.371 | 0.379 | 0.297 | 0.285 | 0.352
15 | NCI-H1755 | 0.751 | 0.813 | 0.646 | 0.605 | 0.8 | 0.496 | 0.495 | 0.475 | 0.435 | 0.402 | 0.479 | 0.502 | 0.456 | 0.351 | 0.422 | 0.452 | 0.463 | 0.426 | 0.433 | 0.419
16 | NCI-H1793 | 0.69 | 0.807 | 0.797 | 0.666 | 0.685 | 0.838 | 0.926 | 0.964 | 0.671 | 0.959 | 0.399 | 0.389 | 0.455 | 0.263 | 0.41 | 0.347 | 0.328 | 0.342 | 0.262 | 0.287
